US20070049564A1 (Wyeth, priority 2005, published 2007)
In brackets after ≈: the same amount, converted by molar mass. Where two headings read alike, the source gives them in different places.

Tests used:
E. coli GC 2236 = assay: MIC, broth microdilution; conditions: Escherichia coli
E. coli GC 2231 = assay: MIC, broth microdilution; conditions: Escherichia coli
E. coli GC 2232 = assay: MIC, broth microdilution; conditions: Escherichia coli
E. coli GC 2233 = assay: MIC, broth microdilution; conditions: Escherichia coli
E. coli GC 2234 = assay: MIC, broth microdilution; conditions: Escherichia coli
E. coli GC 2270 = assay: MIC, broth microdilution; conditions: Escherichia coli
E. coli GC 2271 = assay: MIC, broth microdilution; conditions: Escherichia coli
E. coli GC 3226 = assay: MIC, broth microdilution; conditions: Escherichia coli
E. coli GC 2203 = assay: MIC, broth microdilution; conditions: Escherichia coli
P. aeruginosa GC 2214 = assay: MIC, broth microdilution; conditions: Pseudomonas aeruginosa
S. aureus GC 6466 = assay: MIC, broth microdilution; conditions: Staphylococcus aureus
S. aureus GC 2216 = assay: MIC, broth microdilution; conditions: Staphylococcus aureus
S. aureus GC 6335 = assay: MIC, broth microdilution; conditions: Staphylococcus aureus
S. aureus GC 6469 = assay: MIC, broth microdilution; conditions: Staphylococcus aureus
E. faecalis GC 2265 = assay: MIC, broth microdilution; conditions: Enterococcus faecalis
E. faecium GC 4556 = assay: MIC, broth microdilution; conditions: Enterococcus faecium
E. faecium GC 2243 = assay: MIC, broth microdilution; conditions: Enterococcus faecium
S. pyogenes GC 4563 = assay: MIC, broth microdilution; conditions: Streptococcus pyogenes
E. coli = assay: Range of MIC for E. coli strains; conditions: Escherichia coli
Staph. = assay: Range of MIC for Staph. strains, including MRSA; conditions: Staphylococcus aureus

- MIC (E. coli GC 2236; GC2236, read-out: MINIMAL INHIBITORY CONCENTRATION MIC, Human Serum): 4 µg/mL (≈ 5.59 µM)
- MIC (E. coli GC 2236; GC2236, read-out: MINIMAL INHIBITORY CONCENTRATION MIC, Mouse Serum): 0.5 µg/mL (≈ 0.699 µM)
- MIC (E. coli GC 2236; GC2236, read-out: MINIMAL INHIBITORY CONCENTRATION MIC, Water): 16 µg/mL (≈ 22.4 µM)
- MIC (E. coli GC 2231; GC2231, read-out: MINIMAL INHIBITORY CONCENTRATION MIC, Human Serum): 8 µg/mL (≈ 11.2 µM)
- MIC (E. coli GC 2231; GC2231, read-out: MINIMAL INHIBITORY CONCENTRATION MIC, Mouse Serum): 0.5 µg/mL (≈ 0.699 µM)
- MIC (E. coli GC 2231; GC2231, read-out: MINIMAL INHIBITORY CONCENTRATION MIC, Water): 16 µg/mL (≈ 22.4 µM)
- MIC (E. coli GC 2232; GC2232, read-out: MINIMAL INHIBITORY CONCENTRATION MIC, Human Serum): 4 µg/mL (≈ 5.59 µM)
- MIC (E. coli GC 2232; GC2232, read-out: MINIMAL INHIBITORY CONCENTRATION MIC, Mouse Serum): 0.5 µg/mL (≈ 0.699 µM)
- MIC (E. coli GC 2232; GC2232, read-out: MINIMAL INHIBITORY CONCENTRATION MIC, Water): 16 µg/mL (≈ 22.4 µM)
- MIC (E. coli GC 2233; GC2233, read-out: MINIMAL INHIBITORY CONCENTRATION MIC, Human Serum): 4 µg/mL (≈ 5.59 µM)
- MIC (E. coli GC 2233; GC2233, read-out: MINIMAL INHIBITORY CONCENTRATION MIC, Mouse Serum): 0.25 µg/mL (≈ 0.349 µM)
- MIC (E. coli GC 2233; GC2233, read-out: MINIMAL INHIBITORY CONCENTRATION MIC, Water): 8 µg/mL (≈ 11.2 µM)
- MIC (E. coli GC 2234; GC2234, read-out: MINIMAL INHIBITORY CONCENTRATION MIC, Human Serum): 4 µg/mL (≈ 5.59 µM)
- MIC (E. coli GC 2234; GC2234, read-out: MINIMAL INHIBITORY CONCENTRATION MIC, Mouse Serum): 0.25 µg/mL (≈ 0.349 µM)
- MIC (E. coli GC 2234; GC2234, read-out: MINIMAL INHIBITORY CONCENTRATION MIC, Water): 16 µg/mL (≈ 22.4 µM)
- MIC (E. coli GC 2270; GC2270, read-out: MINIMAL INHIBITORY CONCENTRATION MIC, Human Serum): 4 µg/mL (≈ 5.59 µM)
- MIC (E. coli GC 2270; GC2270, read-out: MINIMAL INHIBITORY CONCENTRATION MIC, Mouse Serum): 0.5 µg/mL (≈ 0.699 µM)
- MIC (E. coli GC 2270; GC2270, read-out: MINIMAL INHIBITORY CONCENTRATION MIC, Water): 16 µg/mL (≈ 22.4 µM)
- MIC (E. coli GC 2271; GC2271, read-out: MINIMAL INHIBITORY CONCENTRATION MIC, Human Serum): 4 µg/mL (≈ 5.59 µM)
- MIC (E. coli GC 2271; GC2271, read-out: MINIMAL INHIBITORY CONCENTRATION MIC, Mouse Serum): 0.25 µg/mL (≈ 0.349 µM)
- MIC (E. coli GC 2271; GC2271, read-out: MINIMAL INHIBITORY CONCENTRATION MIC, Water): 8 µg/mL (≈ 11.2 µM)
- MIC (E. coli GC 3226; GC3226, read-out: MINIMAL INHIBITORY CONCENTRATION MIC, Human Serum): 8 µg/mL (≈ 11.2 µM)
- MIC (E. coli GC 3226; GC3226, read-out: MINIMAL INHIBITORY CONCENTRATION MIC, Mouse Serum): 0.5 µg/mL (≈ 0.699 µM)
- MIC (E. coli GC 3226; GC3226, read-out: MINIMAL INHIBITORY CONCENTRATION MIC, Water): 16 µg/mL (≈ 22.4 µM)
- MIC (E. coli GC 2203; GC2203, read-out: MINIMAL INHIBITORY CONCENTRATION MIC, Human Serum): 4 µg/mL (≈ 5.59 µM)
- MIC (E. coli GC 2203; GC2203, read-out: MINIMAL INHIBITORY CONCENTRATION MIC, Mouse Serum): 0.25 µg/mL (≈ 0.349 µM)
- MIC (E. coli GC 2203; GC2203, read-out: MINIMAL INHIBITORY CONCENTRATION MIC, Water): 8 µg/mL (≈ 11.2 µM)
- MIC (P. aeruginosa GC 2214; GC2214, read-out: MINIMAL INHIBITORY CONCENTRATION MIC, Human Serum): > 64 µg/mL
- MIC (P. aeruginosa GC 2214; GC2214, read-out: MINIMAL INHIBITORY CONCENTRATION MIC, Mouse Serum): 32 µg/mL (≈ 44.7 µM)
- MIC (P. aeruginosa GC 2214; GC2214, read-out: MINIMAL INHIBITORY CONCENTRATION MIC, Water): > 64 µg/mL
- MIC (S. aureus GC 6466; GC6466, read-out: MINIMAL INHIBITORY CONCENTRATION MIC, Human Serum): 0.12 µg/mL (≈ 0.168 µM)
- MIC (S. aureus GC 6466; GC6466, read-out: MINIMAL INHIBITORY CONCENTRATION MIC, Mouse Serum): 0.12 µg/mL (≈ 0.168 µM)
- MIC (S. aureus GC 6466; GC6466, read-out: MINIMAL INHIBITORY CONCENTRATION MIC, Water): 0.12 µg/mL (≈ 0.168 µM)
- MIC (S. aureus GC 2216; GC2216, read-out: MINIMAL INHIBITORY CONCENTRATION MIC, Human Serum): 0.25 µg/mL (≈ 0.349 µM)
- MIC (S. aureus GC 2216; GC2216, read-out: MINIMAL INHIBITORY CONCENTRATION MIC, Mouse Serum): 0.25 µg/mL (≈ 0.349 µM)
- MIC (S. aureus GC 2216; GC2216, read-out: MINIMAL INHIBITORY CONCENTRATION MIC, Water): 0.5 µg/mL (≈ 0.699 µM)
- MIC (S. aureus GC 6335; GC6335, read-out: MINIMAL INHIBITORY CONCENTRATION MIC, Human Serum): 1 µg/mL (≈ 1.4 µM)
- MIC (S. aureus GC 6335; GC6335, read-out: MINIMAL INHIBITORY CONCENTRATION MIC, Mouse Serum): 1 µg/mL (≈ 1.4 µM)
- MIC (S. aureus GC 6335; GC6335, read-out: MINIMAL INHIBITORY CONCENTRATION MIC, Water): 2 µg/mL (≈ 2.79 µM)
- MIC (S. aureus GC 6469; GC6469, read-out: MINIMAL INHIBITORY CONCENTRATION MIC, Human Serum): 1 µg/mL (≈ 1.4 µM)
- MIC (S. aureus GC 6469; GC6469, read-out: MINIMAL INHIBITORY CONCENTRATION MIC, Mouse Serum): 1 µg/mL (≈ 1.4 µM)
- MIC (S. aureus GC 6469; GC6469, read-out: MINIMAL INHIBITORY CONCENTRATION MIC, Water): 1 µg/mL (≈ 1.4 µM)
- MIC (E. faecalis GC 2265; GC2265, read-out: MINIMAL INHIBITORY CONCENTRATION MIC, Human Serum): 1 µg/mL (≈ 1.4 µM)
- MIC (E. faecalis GC 2265; GC2265, read-out: MINIMAL INHIBITORY CONCENTRATION MIC, Mouse Serum): 0.5 µg/mL (≈ 0.699 µM)
- MIC (E. faecalis GC 2265; GC2265, read-out: MINIMAL INHIBITORY CONCENTRATION MIC, Water): 2 µg/mL (≈ 2.79 µM)
- MIC (E. faecium GC 4556; GC4556, read-out: MINIMAL INHIBITORY CONCENTRATION MIC, Human Serum): 1 µg/mL (≈ 1.4 µM)
- MIC (E. faecium GC 4556; GC4556, read-out: MINIMAL INHIBITORY CONCENTRATION MIC, Mouse Serum): 0.5 µg/mL (≈ 0.699 µM)
- MIC (E. faecium GC 4556; GC4556, read-out: MINIMAL INHIBITORY CONCENTRATION MIC, Water): 2 µg/mL (≈ 2.79 µM)
- MIC (E. faecium GC 2243; GC2243, read-out: MINIMAL INHIBITORY CONCENTRATION MIC, Human Serum): 0.25 µg/mL (≈ 0.349 µM)
- MIC (E. faecium GC 2243; GC2243, read-out: MINIMAL INHIBITORY CONCENTRATION MIC, Mouse Serum): 0.25 µg/mL (≈ 0.349 µM)
- MIC (E. faecium GC 2243; GC2243, read-out: MINIMAL INHIBITORY CONCENTRATION MIC, Water): 0.5 µg/mL (≈ 0.699 µM)
- MIC (S. pyogenes GC 4563; GC4563, read-out: MINIMAL INHIBITORY CONCENTRATION MIC, Human Serum): 0.12 µg/mL (≈ 0.168 µM)
- MIC (S. pyogenes GC 4563; GC4563, read-out: MINIMAL INHIBITORY CONCENTRATION MIC, Mouse Serum): 0.12 µg/mL (≈ 0.168 µM)
- MIC (S. pyogenes GC 4563; GC4563, read-out: MINIMAL INHIBITORY CONCENTRATION MIC, Water): 0.12 µg/mL (≈ 0.168 µM)
- MIC (E. coli; 20 h, read-out: Range of MIC, E. coli (Mouse Serum)): 0.25 to 2 µg/mL (≈ 0.349 to 2.79 µM)
- MIC (E. coli; read-out: Minimum inhibitory concentration (MIC), E. coli (Human Serum)): 4 to 32 µg/mL (≈ 5.59 to 44.7 µM)
- MIC (Staph.; MRSA, read-out: Range of MIC, Staph (Mouse Serum)): 0.12 to 1 µg/mL (≈ 0.168 to 1.4 µM)
- MIC (Staph.; MRSA, read-out: Range of MIC, Staph (Water)): 0.12 to 2 µg/mL (≈ 0.168 to 2.79 µM)
- MIC (Staph.; read-out: Minimum inhibitory concentration (MIC), Staph (Human Serum)): 0.12 to 1 µg/mL (≈ 0.168 to 1.4 µM)
- MIC (Staph.; read-out: Minimum inhibitory concentration (MIC), Staph (Water)): 0.12 to 2 µg/mL (≈ 0.168 to 2.79 µM)
Structure (SMILES): CCC(=O)OCOC(=O)N(CC(=O)Nc1cc(N(C)C)c2c(c1O)C(=O)C1=C(O)[C@]3(O)C(=O)C(C(N)=O)=C(O)[C@@H](N(C)C)[C@@H]3C[C@@H]1C2)C(C)(C)C [Example 49, ({[(2-{[(5aR,6aS,7S,10aS)-9-(aminocarbonyl)-4,7-bis(dimethylamino)-1,8,10a,11-tetrahydroxy-10,12-dioxo-5,5a,6,6a,7,10,10a,12-octahydrotetracen-2-yl]amino}-2-oxoethyl)(tert-butyl)amino]carbonyl}oxy)methyl propionate]
